Data reported in patent US10023593B2, “ALK kinase inhibitor, and preparation method and uses thereof” (BEIJING PEARL BIOTECHNOLOGY LIMITED LIABILITY COMPANY, priority 2014, dated 2018).

These compounds were tested on NCI-H2228 cell line (assay: CellTiter-Glo cell proliferation inhibition on NCI-H2228 cell line). Conditions: Homo sapiens, NCI-H2228, 96 h, NCI-H2228 cells, 5000 cells/well, 4 days drug treatment.
Assay type: cell-based
Method: 3. Cell Proliferation Inhibitory Activities of the Compounds of the Present Invention on NCI-H2228 Cell Line
? experimental method ? CellTiter-Glo® Luminescent Cell Viability Assay kit from Promega company was used to detect cell proliferation inhibitory activities of the compounds on NCI-H2228 cell line.
? instrument ? Envision 2104 plate reader from PerKinElmer company; Vi-Cell XR cell counter from Beckman Counter company; MCO-18AIC CO2 incubator from SANYO company.
? experiment material ? CellTiter-Glo® Luminescent Cell Viability Assay Kit (Promega company, catalog No. G7573); NCI-H2228 cell line (ATCC, catalog No. CRL-5935); RPMI-1640 medium (HyClone company, catalog No. SH30809.01B); fetal bovine serum (FBS) (Gibco company, catalog No. 10099-141); trypsin (Trypsin) (Gibco company, catalog No. 25200-072); PBS (HyClone company, catalog No. SH30256.01B); 96 wells cell culture plate (Corning company, catalog No. 3610); DMSO (AMRESCO company, catalog No. 0231); 96 wells plates (for diluting compounds) (CITOTEST company, catalog No. Ref36020096D);
? experimental condition ? NCI-H2228 cells in exponential growth phase were collected and treated with trypsin (Trypsin), and viable cells were counted by Vi-Cell XR cell counter. Cell suspension was adjusted to 62500 cells/ml with culture medium (RPMI-1640+10% FBS). 80 μl cell suspension was added into each well of 96 wells cell culture plate so that the final cell number of NCI-H2228 cells was 5000 cells/well. The cells were cultivated in an incubator with an atmosphere of 37° C., 5% CO2 and 95% humidity for 2 hours and then each well was added with 20 μl compounds in RPMI-1640 medium solution (the final concentration of DMSO was 0.5%). 4 days after drug treatment, each well was added with 50 μl CellTiter-Glo solution which was previously thawed and equilibrated to room temperature, and mixed for 2 minutes with microplate shaker. After placing at room temperature for 10 minutes, luminescence value was measured by PerkinElmer Envision 2104 plate reader and the data was analyzed.
? tested samples ? Compounds of the examples.
? data analysis ? Luminescence value of DMSO solvent control (Vvehicle control, which is the mean luminescence value from DMSO solvent control group)
Tested luminescence value (Vsample, which is the luminescence value from given concentration of compounds group) Inhibition rate (%)=(1−Vsample/Vvehicle control)×100
? data processing ? IC50 of compounds was calculated by using XLfit program in Excel.

Point of comparison: `CCOc1cc(C2CCN(CC)CC2)c(C)cc1Nc1ncc(Cl)c(Nc2cn(C)nc2S(=O)(=O)C(C)C)n1` [Final product 116], IC50 34 nM. Against it:
- CCOc1cc(C2CCN(CCOC)CC2)c(C)cc1Nc1ncc(Cl)c(Nc2cn(C)nc2S(=O)(=O)C(C)C)n1 [Final product 143, 5-chloro-N^2-(2-ethoxy-4-(1-(2-methoxyethyl)piperidin-4-yl)-5-methyl-phenyl)-N^4-(3-(isopropylsulfonyl)-1-methyl-1H-pyrazol-4)-pyrimidin-2,4-diamine] — within 1.5-fold, 32 nM
- CC(C)Oc1cc(C2CCN(C)CC2)c(C2CC2)cc1Nc1ncc(Cl)c(Nc2cn(C)nc2S(=O)(=O)C(C)C)n1 [Final product 68] — 4.4-fold higher, 150 nM
- Cc1cc(Nc2ncc(Cl)c(Nc3cn(C)nc3S(=O)(=O)CC(C)C)n2)c(OC2CC2)cc1[C@H]1CC[C@@H](NC2CC2)CC1 [Final product 179] — 4-fold higher, 137 nM
- Cc1cc(Nc2ncc(Cl)c(Nc3cn(C)nc3S(=O)(=O)C(C)C)n2)c(OC(C)C)cc1C1CN(C(C)C)C1 [Final product 132] — 6.1-fold higher, 207 nM
- Cc1cc(Nc2ncc(Cl)c(Nc3cn(C)nc3S(=O)(=O)C(C)C)n2)c(OC2CC2)cc1C1CC2COCC(C1)N2C (centres unmarked) [Final product 74] — 1.8-fold lower, 19 nM
- CCOc1cc(C2CCN(C(C)C)CC2)c(C)cc1Nc1ncc(Cl)c(Nc2cn(C)nc2S(=O)(=O)C(C)C)n1 [Final product 125] — within 1.5-fold, 47 nM
- Cc1cc(Nc2ncc(Cl)c(Nc3cn(C)nc3S(=O)(=O)CC(C)C)n2)c(OC2CC2)cc1C1CCN(C)CC1C (centres unmarked) [Final product 91] — 2.2-fold higher, 75 nM
- Cc1cc(Nc2ncc(Cl)c(Nc3cn(C)nc3S(=O)(=O)C(C)C)n2)c(OC2CC2)cc1C1CCN(C(C)(C)CO)CC1 [Final product 147, 2-(4-(4-(5-chloro-4-(3-(isopropylsulfonyl)-1-methyl-1H-pyrazol-4-amino)pyrimidin-2-amino)-5-cyclopropoxy-2-methylphenyl)piperidin-1-yl)-2-methyl-1-propanol] — within 1.5-fold, 41 nM
- COCC(C)(C)N1CCC(c2cc(OC3CC3)c(Nc3ncc(Cl)c(Nc4cn(C)nc4S(=O)(=O)C(C)C)n3)cc2C)CC1 [Final product 84] — within 1.5-fold, 46 nM
- CCN(CC)[C@H]1CC[C@@H](c2cc(OC3CC3)c(Nc3ncc(Cl)c(Nc4cn(C)nc4S(=O)(=O)CC(C)C)n3)cc2C)CC1 [Final product 177] — 2.1-fold higher, 73 nM
- Cc1cc(Nc2ncc(Cl)c(Nc3cn(C)nc3S(=O)(=O)CC(C)C)n2)c(OC2CC2)cc1[C@H]1CC[C@@H](NC(C)C)CC1 [Final product 181] — 3.1-fold higher, 106 nM
- Cc1cc(Nc2ncc(Cl)c(Nc3cn(C)nc3S(=O)(=O)C(C)C)n2)c(OC2CC2)cc1[C@H]1CC[C@@H](NC2CC2)CC1 [Final product 195] — 3.4-fold higher, 116 nM
- Cc1cc(Nc2ncc(Cl)c(Nc3cn(C)nc3S(=O)(=O)C(C)C)n2)c(OC2CC2)cc1[C@H]1CC[C@H](N(C)C(C)C)CC1 [Final product 194] — 2.3-fold higher, 78 nM
- Cc1cc(Nc2ncc(Cl)c(Nc3cn(C)nc3S(=O)(=O)CC(C)C)n2)c(OC2CC2)cc1[C@H]1CC[C@H](N(C)C)CC1 [Final product 176, 5-chloro-N^2-(2-cyclopropoxy4-(4-(dimethylamino)cyclohexyl)-5-methylphenyl)-N^4-(3-(isobutylsulfonyl)-1-methyl-1H-pyrazol-4-yl) pyrimidin-2,4-diamine] — 2.7-fold higher, 91 nM
- Cc1cc(Nc2ncc(Cl)c(Nc3cn(C)nc3S(=O)(=O)C(C)C)n2)c(OC2CC2)cc1C1CCN(CCF)CC1 [Final product 145, 5-chloro-N^2-[2-cyclopropoxy-4-(1-(2-fluoroethyl)piperidin-4-yl)-5-methylphenyl]-N^4-[1-methyl-3-(isopropylsulfonyl)-1H-pyrazol-4-yl]-pyrimidin-2,4-diamine] — 1.6-fold higher, 54 nM
- Cc1cc(Nc2ncc(Cl)c(Nc3cn(C)nc3S(=O)(=O)CC(C)C)n2)c(OC2CC2)cc1C1CCCN(C(C)C)C1 (centres unmarked) [Final product 130] — within 1.5-fold, 28 nM
- COCCN1CCC(c2cc(OC3CCC3)c(Nc3ncc(Cl)c(Nc4cn(C)nc4S(=O)(=O)C(C)C)n3)cc2C)CC1 [Final product 144, 5-chloro-N^2-(2-cyclobutyloxy-4-(1-(2-methoxyethyl)piperidin-4-yl)-5-methyl-phenyl)-N^4-(3-(isopropylsulfonyl)-1-methyl-1H-pyrazol-4)-pyrimidin-2,4-diamine] — within 1.5-fold, 48 nM
- Cc1cc(Nc2ncc(Cl)c(Nc3cn(C)nc3S(=O)(=O)C(C)C)n2)c(OC2CCC2)cc1C1CCCN(C(C)(C)CO)C1 (centres unmarked) [Final product 154] — 3.8-fold higher, 128 nM
- Cc1cc(Nc2ncc(Cl)c(Nc3cn(C)nc3S(=O)(=O)C(C)C)n2)c(OC2CC2)cc1C1CC2CN(C)CC(C1)O2 (centres unmarked) [Final product 109] — 3.2-fold higher, 109 nM
- Cc1cc(Nc2ncc(Cl)c(Nc3cn(C)nc3S(=O)(=O)C(C)C)n2)c(OC2CC2)cc1C1CC2COCC(C1)N2 (centres unmarked) [Final product 108] — within 1.5-fold, 33 nM
- Cc1cc(Nc2ncc(Cl)c(Nc3cn(C)nc3S(=O)(=O)C(C)C)n2)c(OC2CC2)cc1C1CCCN(C(C)C)C1 (centres unmarked) [Final product 129] — within 1.5-fold, 32 nM
- Cc1cc(Nc2ncc(F)c(Nc3cn(C)nc3S(=O)(=O)C(C)C)n2)c(OC(C)C)cc1C1CCN(C)CC1 [Final product 71] — 5.9-fold higher, 199 nM
- Cc1cc(Nc2ncc(Cl)c(Nc3cn(C)nc3S(=O)(=O)C(C)C)n2)c(OC(C)C)cc1C1CCCN(CCO)C1 (centres unmarked) [Final product 141] — 4.3-fold higher, 147 nM
- Cc1cc(Nc2ncc(Cl)c(Nc3cn(C)nc3S(=O)(=O)C(C)C)n2)c(OC(C)C)cc1C1CCN(C)C(C)C1 (centres unmarked) [Final product 94] — 2.3-fold higher, 79 nM
- Cc1cc(Nc2ncc(Cl)c(Nc3cn(C)nc3S(=O)(=O)C(C)C)n2)c(OC2CC2)cc1[C@H]1CC[C@@H](NC(C)C)CC1 [Final product 197] — 2.1-fold higher, 72 nM
- Cc1cc(Nc2ncc(Cl)c(Nc3cn(C)nc3S(=O)(=O)CC(C)C)n2)c(OC2CC2)cc1C1CCN(C(C)(C)CO)CC1 [Final product 149] — 1.7-fold higher, 57 nM
- CCCc1cc(Nc2ncc(Cl)c(Nc3cn(C)nc3S(=O)(=O)C(C)C)n2)c(OC(C)C)cc1C1CCN(C)CC1 [Final product 69] — 5.2-fold higher, 178 nM
- Cc1cc(Nc2ncc(Cl)c(Nc3cn(C)nc3S(=O)(=O)C(C)C)n2)c(OC2CC2)cc1C1CCCN(CCO)C1 (centres unmarked) [Final product 139] — 2.6-fold higher, 90 nM
- Cc1cc(Nc2ncc(Cl)c(Nc3cn(C)nc3S(=O)(=O)C(C)C)n2)c(OC(C)C)cc1C1CCN(CCO)CC1 [Final product 136] — 3.3-fold higher, 112 nM
- Cc1cc(Nc2ncc(Cl)c(Nc3cn(C)nc3S(=O)(=O)C(C)C)n2)c(OC(C)C)cc1C1CCC(N(C)C)CC1 (centres unmarked) [Final product 183] — 5.1-fold higher, 172 nM
- Cc1cc(Nc2ncc(Cl)c(Nc3cn(C)nc3S(=O)(=O)C(C)C)n2)c(OC2CC2)cc1C1CCN2CCCC2C1 (centres unmarked) [Final product 105] — 1.9-fold higher, 63 nM
- Cc1cc(Nc2ncc(Cl)c(Nc3cn(C)nc3S(=O)(=O)C(C)C)n2)c(OC(C)C)cc1C1CN(CCO)C1 [Final product 134] — 3.9-fold higher, 134 nM
- Cc1cc(Nc2ncc(Cl)c(Nc3cn(C)nc3S(=O)(=O)C(C)C)n2)c(OC(C)C)cc1C1CC(C)(C)N(C)C(C)(C)C1 [Final product 98] — 7.1-fold higher, 240 nM
- Cc1cc(Nc2ncc(Cl)c(Nc3cn(C)nc3S(=O)(=O)CC(C)C)n2)c(OC2CC2)cc1C1CCN(C)C(C)C1 (centres unmarked) [Final product 93] — 2-fold higher, 67 nM
- Cc1cc(Nc2ncc(Cl)c(Nc3cn(C)nc3S(=O)(=O)C(C)C)n2)c(OC(C)C)cc1C1CCCN(C)C1 (centres unmarked) [Final product 62] — 3.6-fold higher, 122 nM
- Cc1cc(Nc2ncc(Cl)c(Nc3cn(C)nc3S(=O)(=O)C(C)C)n2)c(OC2CC2)cc1C1CCN(C)CC1Cl (centres unmarked) [Final product 89] — 3.2-fold higher, 108 nM
- Cc1cc(Nc2ncc(Cl)c(Nc3cn(C)nc3S(=O)(=O)C(C)C)n2)c(OC2CC2)cc1[C@H]1CC[C@@H](N(C)C(C)C)CC1 [Final product 193] — 3.4-fold higher, 116 nM
- CCOc1cc(C2CCCN(C(C)(C)CO)C2)c(C)cc1Nc1ncc(Cl)c(Nc2cn(C)nc2S(=O)(=O)C(C)C)n1 (centres unmarked) [Final product 151] — 2.1-fold higher, 70 nM
- CCCOc1cc(C2CCN(C)CC2)c(C)cc1Nc1ncc(Cl)c(Nc2cn(C)nc2S(=O)(=O)C(C)C)n1 [Final product 66] — 1.7-fold higher, 59 nM
- Cc1cc(Nc2ncc(Cl)c(Nc3cn(C)nc3S(=O)(=O)CC(C)C)n2)c(OC2CC2)cc1C1CC(C)N(C)C(C)C1 (centres unmarked) [Final product 96] — 2.5-fold higher, 85 nM
- Cc1cc(Nc2ncc(Cl)c(Nc3cn(C)nc3S(=O)(=O)C(C)C)n2)c(OC2CC2)cc1CN1CCN(C)CC1 [Final product 75] — 3.2-fold higher, 109 nM
- CCOc1cc(C2CCN(C)CC2)c(C)cc1Nc1ncc(Cl)c(Nc2cn(C)nc2S(=O)(=O)C(C)C)n1 [Final product 65] — within 1.5-fold, 38 nM
- Cc1cc(Nc2ncc(Cl)c(Nc3cn(C)nc3S(=O)(=O)C(C)C)n2)c(OC2CC2)cc1[C@H]1CC[C@H](NCCN(C)C)CC1 [Final product 200] — 6.2-fold higher, 210 nM
